Assay results from PubChem BioAssay (NCI).
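Dose response: 5 concentrations. Exposure: 48 h. Format: 96-well plates. Endpoint: linear interpolation; highest concentration if not reached. TGI: concentration producing complete growth inhibition.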

System: OVCAR-3 ovarian
Experiment: growth of human tumour cells (NCI), 48 h

**Q.** Which TGI does the source give for `NC(=O)NCCCC(NC(=O)OCCCCn1ccc(=O)[nH]c1=O)C(=O)O` (stereo not given) here?
**A.** > 100 µM

**Q.** How did the TGI turn out when `Clc1ccccc1C(SCc1ccccc1)SCc1ccccc1` was run?
**A.** > 100 µM

**Q.** Which TGI does the source give for `CC[C@@H]1CC[C@@H]2[C@H](CC[C@]3(C)[C@@H](OC(C)=O)CC[C@@H]23)[C@H]1COC(C)=O` here?
**A.** 34.6 µM

**Q.** How did the TGI turn out when `COC(=O)C([C@H](NC1(c2ccccc2)c2ccccc2-c2ccccc21)C(=O)OC)N(NC(=O)OCc1ccccc1)C(=O)OCc1ccccc1` (mixture of isomers) was run?
**A.** > 100 µM

**Q.** How did the TGI turn out when `COC(=O)c1cc(=O)nc2sc3cccc(C)c3n12` was run?
**A.** 82.8 µM

System: KM12 colon
Experiment: growth of human tumour cells (NCI), 48 h

**Q.** How did the TGI turn out when `NC(=O)NCCCC(NC(=O)OCCCCn1ccc(=O)[nH]c1=O)C(=O)O` (stereo not given) was run?
**A.** > 100 µM

**Q.** For `Clc1ccccc1C(SCc1ccccc1)SCc1ccccc1`, which TGI is on record?
**A.** > 100 µM

**Q.** With `CC[C@@H]1CC[C@@H]2[C@H](CC[C@]3(C)[C@@H](OC(C)=O)CC[C@@H]23)[C@H]1COC(C)=O` as the compound, how does the TGI read?
**A.** 60 µM

**Q.** For `COC(=O)C([C@H](NC1(c2ccccc2)c2ccccc2-c2ccccc21)C(=O)OC)N(NC(=O)OCc1ccccc1)C(=O)OCc1ccccc1` (mixture of isomers), which TGI is on record?
**A.** > 100 µM

**Q.** Which TGI does the source give for `COC(=O)c1cc(=O)nc2sc3cccc(C)c3n12` here?
**A.** > 100 µM

System: EKVX NSCLC
Experiment: growth of human tumour cells (NCI), 48 h

**Q.** With `NC(=O)NCCCC(NC(=O)OCCCCn1ccc(=O)[nH]c1=O)C(=O)O` (stereo not given) as the compound, how does the TGI read?
**A.** > 100 µM

**Q.** How did the TGI turn out when `Clc1ccccc1C(SCc1ccccc1)SCc1ccccc1` was run?
**A.** > 100 µM

**Q.** Which TGI does the source give for `CC[C@@H]1CC[C@@H]2[C@H](CC[C@]3(C)[C@@H](OC(C)=O)CC[C@@H]23)[C@H]1COC(C)=O` here?
**A.** 73.6 µM

**Q.** How did the TGI turn out when `COC(=O)C([C@H](NC1(c2ccccc2)c2ccccc2-c2ccccc21)C(=O)OC)N(NC(=O)OCc1ccccc1)C(=O)OCc1ccccc1` (mixture of isomers) was run?
**A.** > 100 µM

**Q.** How did the TGI turn out when `COC(=O)c1cc(=O)nc2sc3cccc(C)c3n12` was run?
**A.** > 100 µM

System: OVCAR-5 ovarian
Experiment: growth of human tumour cells (NCI), 48 h

**Q.** With `NC(=O)NCCCC(NC(=O)OCCCCn1ccc(=O)[nH]c1=O)C(=O)O` (stereo not given) as the compound, how does the TGI read?
**A.** > 100 µM

**Q.** How did the TGI turn out when `Clc1ccccc1C(SCc1ccccc1)SCc1ccccc1` was run?
**A.** > 100 µM

**Q.** `CC[C@@H]1CC[C@@H]2[C@H](CC[C@]3(C)[C@@H](OC(C)=O)CC[C@@H]23)[C@H]1COC(C)=O` was tested. Which TGI did it give?
**A.** 73.8 µM

**Q.** Which TGI does the source give for `COC(=O)C([C@H](NC1(c2ccccc2)c2ccccc2-c2ccccc21)C(=O)OC)N(NC(=O)OCc1ccccc1)C(=O)OCc1ccccc1` (mixture of isomers) here?
**A.** > 100 µM

**Q.** For `COC(=O)c1cc(=O)nc2sc3cccc(C)c3n12`, which TGI is on record?
**A.** > 100 µM

System: HT29 colon
Experiment: growth of human tumour cells (NCI), 48 h

**Q.** How did the TGI turn out when `NC(=O)NCCCC(NC(=O)OCCCCn1ccc(=O)[nH]c1=O)C(=O)O` (stereo not given) was run?
**A.** > 100 µM

**Q.** `Clc1ccccc1C(SCc1ccccc1)SCc1ccccc1` was tested. Which TGI did it give?
**A.** > 100 µM

**Q.** With `CC[C@@H]1CC[C@@H]2[C@H](CC[C@]3(C)[C@@H](OC(C)=O)CC[C@@H]23)[C@H]1COC(C)=O` as the compound, how does the TGI read?
**A.** 39.5 µM

**Q.** `COC(=O)C([C@H](NC1(c2ccccc2)c2ccccc2-c2ccccc21)C(=O)OC)N(NC(=O)OCc1ccccc1)C(=O)OCc1ccccc1` (mixture of isomers) was tested. Which TGI did it give?
**A.** > 100 µM

**Q.** How did the TGI turn out when `COC(=O)c1cc(=O)nc2sc3cccc(C)c3n12` was run?
**A.** > 100 µM

System: U251 CNS
Experiment: growth of human tumour cells (NCI), 48 h

**Q.** How did the TGI turn out when `NC(=O)NCCCC(NC(=O)OCCCCn1ccc(=O)[nH]c1=O)C(=O)O` (stereo not given) was run?
**A.** > 100 µM

**Q.** With `Clc1ccccc1C(SCc1ccccc1)SCc1ccccc1` as the compound, how does the TGI read?
**A.** > 100 µM

**Q.** How did the TGI turn out when `CC[C@@H]1CC[C@@H]2[C@H](CC[C@]3(C)[C@@H](OC(C)=O)CC[C@@H]23)[C@H]1COC(C)=O` was run?
**A.** 45 µM

**Q.** For `COC(=O)C([C@H](NC1(c2ccccc2)c2ccccc2-c2ccccc21)C(=O)OC)N(NC(=O)OCc1ccccc1)C(=O)OCc1ccccc1` (mixture of isomers), which TGI is on record?
**A.** > 100 µM

**Q.** With `COC(=O)c1cc(=O)nc2sc3cccc(C)c3n12` as the compound, how does the TGI read?
**A.** > 100 µM

System: OVCAR-8 ovarian
Experiment: growth of human tumour cells (NCI), 48 h

**Q.** `NC(=O)NCCCC(NC(=O)OCCCCn1ccc(=O)[nH]c1=O)C(=O)O` (stereo not given) was tested. Which TGI did it give?
**A.** > 100 µM

**Q.** For `Clc1ccccc1C(SCc1ccccc1)SCc1ccccc1`, which TGI is on record?
**A.** > 100 µM

**Q.** With `CC[C@@H]1CC[C@@H]2[C@H](CC[C@]3(C)[C@@H](OC(C)=O)CC[C@@H]23)[C@H]1COC(C)=O` as the compound, how does the TGI read?
**A.** 82 µM

**Q.** Which TGI does the source give for `COC(=O)C([C@H](NC1(c2ccccc2)c2ccccc2-c2ccccc21)C(=O)OC)N(NC(=O)OCc1ccccc1)C(=O)OCc1ccccc1` (mixture of isomers) here?
**A.** > 100 µM

**Q.** Which TGI does the source give for `COC(=O)c1cc(=O)nc2sc3cccc(C)c3n12` here?
**A.** 49.2 µM

System: NCI/ADR-RES ovarian
Experiment: growth of human tumour cells (NCI), 48 h

**Q.** How did the TGI turn out when `NC(=O)NCCCC(NC(=O)OCCCCn1ccc(=O)[nH]c1=O)C(=O)O` (stereo not given) was run?
**A.** > 100 µM

**Q.** For `Clc1ccccc1C(SCc1ccccc1)SCc1ccccc1`, which TGI is on record?
**A.** > 100 µM

**Q.** `CC[C@@H]1CC[C@@H]2[C@H](CC[C@]3(C)[C@@H](OC(C)=O)CC[C@@H]23)[C@H]1COC(C)=O` was tested. Which TGI did it give?
**A.** 76 µM

**Q.** How did the TGI turn out when `COC(=O)C([C@H](NC1(c2ccccc2)c2ccccc2-c2ccccc21)C(=O)OC)N(NC(=O)OCc1ccccc1)C(=O)OCc1ccccc1` (mixture of isomers) was run?
**A.** > 100 µM

**Q.** Which TGI does the source give for `COC(=O)c1cc(=O)nc2sc3cccc(C)c3n12` here?
**A.** > 100 µM

System: M14 melanoma
Experiment: growth of human tumour cells (NCI), 48 h

**Q.** With `NC(=O)NCCCC(NC(=O)OCCCCn1ccc(=O)[nH]c1=O)C(=O)O` (stereo not given) as the compound, how does the TGI read?
**A.** > 100 µM

**Q.** Which TGI does the source give for `Clc1ccccc1C(SCc1ccccc1)SCc1ccccc1` here?
**A.** > 100 µM

**Q.** How did the TGI turn out when `CC[C@@H]1CC[C@@H]2[C@H](CC[C@]3(C)[C@@H](OC(C)=O)CC[C@@H]23)[C@H]1COC(C)=O` was run?
**A.** 76.6 µM

**Q.** With `COC(=O)C([C@H](NC1(c2ccccc2)c2ccccc2-c2ccccc21)C(=O)OC)N(NC(=O)OCc1ccccc1)C(=O)OCc1ccccc1` (mixture of isomers) as the compound, how does the TGI read?
**A.** > 100 µM

**Q.** With `COC(=O)c1cc(=O)nc2sc3cccc(C)c3n12` as the compound, how does the TGI read?
**A.** > 100 µM

System: NCI-H460 lung
Experiment: growth of human tumour cells (NCI), 48 h

**Q.** `NC(=O)NCCCC(NC(=O)OCCCCn1ccc(=O)[nH]c1=O)C(=O)O` (stereo not given) was tested. Which TGI did it give?
**A.** > 100 µM

**Q.** Which TGI does the source give for `Clc1ccccc1C(SCc1ccccc1)SCc1ccccc1` here?
**A.** > 100 µM

**Q.** For `CC[C@@H]1CC[C@@H]2[C@H](CC[C@]3(C)[C@@H](OC(C)=O)CC[C@@H]23)[C@H]1COC(C)=O`, which TGI is on record?
**A.** 45.9 µM

**Q.** Which TGI does the source give for `COC(=O)C([C@H](NC1(c2ccccc2)c2ccccc2-c2ccccc21)C(=O)OC)N(NC(=O)OCc1ccccc1)C(=O)OCc1ccccc1` (mixture of isomers) here?
**A.** > 100 µM

**Q.** Which TGI does the source give for `COC(=O)c1cc(=O)nc2sc3cccc(C)c3n12` here?
**A.** > 100 µM

System: IGROV1 ovarian
Experiment: growth of human tumour cells (NCI), 48 h

**Q.** `NC(=O)NCCCC(NC(=O)OCCCCn1ccc(=O)[nH]c1=O)C(=O)O` (stereo not given) was tested. Which TGI did it give?
**A.** > 100 µM

**Q.** How did the TGI turn out when `Clc1ccccc1C(SCc1ccccc1)SCc1ccccc1` was run?
**A.** > 100 µM

**Q.** Which TGI does the source give for `CC[C@@H]1CC[C@@H]2[C@H](CC[C@]3(C)[C@@H](OC(C)=O)CC[C@@H]23)[C@H]1COC(C)=O` here?
**A.** > 100 µM

**Q.** `COC(=O)C([C@H](NC1(c2ccccc2)c2ccccc2-c2ccccc21)C(=O)OC)N(NC(=O)OCc1ccccc1)C(=O)OCc1ccccc1` (mixture of isomers) was tested. Which TGI did it give?
**A.** > 100 µM

**Q.** `COC(=O)c1cc(=O)nc2sc3cccc(C)c3n12` was tested. Which TGI did it give?
**A.** > 100 µM

System: SF-539 CNS
Experiment: growth of human tumour cells (NCI), 48 h

**Q.** `NC(=O)NCCCC(NC(=O)OCCCCn1ccc(=O)[nH]c1=O)C(=O)O` (stereo not given) was tested. Which TGI did it give?
**A.** > 100 µM

**Q.** With `Clc1ccccc1C(SCc1ccccc1)SCc1ccccc1` as the compound, how does the TGI read?
**A.** > 100 µM

**Q.** Which TGI does the source give for `CC[C@@H]1CC[C@@H]2[C@H](CC[C@]3(C)[C@@H](OC(C)=O)CC[C@@H]23)[C@H]1COC(C)=O` here?
**A.** 67.9 µM

**Q.** With `COC(=O)C([C@H](NC1(c2ccccc2)c2ccccc2-c2ccccc21)C(=O)OC)N(NC(=O)OCc1ccccc1)C(=O)OCc1ccccc1` (mixture of isomers) as the compound, how does the TGI read?
**A.** > 100 µM

**Q.** With `COC(=O)c1cc(=O)nc2sc3cccc(C)c3n12` as the compound, how does the TGI read?
**A.** > 100 µM
